# Key:
# Type in all cases: cell-based, human
# A549/ATCC = assay: NCI one-dose SRB assay (Non-Small Cell Lung Cancer)
# Experimental: (§1) The structures of all the newly prepared pyridine-ureas 8a–n were submitted to the National Cancer Institute (NCI) Developmental Therapeutic Program. Eight compounds 8b, 8d, 8e, 8i, 8j and 8l–n were selected to be examined for their in vitro growth inhibitory activity. The anticancer assays were carried out according to the protocol of the Drug Evaluation Branch, NCI, Bethesda. The selected pyridine-ureas were tested at one dose primary anticancer assay against a panel of approximately 58 cancer lines (concentration 10^−5 M). The tested human cancer cell lines emerged from nine different cancer subtypes: leukemia, colon, melanoma, ovarian, lung, CNS, renal, breast and prostate cancers. The sulforhodamine B (SRB) protein assay was adopted to estimate the cell viability and growth. The results were reported as mean-graph of the percentage growth of the treated cells, and presented as percentage growth inhibition (GI%) caused by the test compounds (Table 2).
# (§2) The anticancer assays were performed in accordance with the protocol of the Drug Evaluation Branch, NCI, Bethesda. A 48 h drug exposure protocol was used and sulforhodamine B (SRB) protein assay was applied to estimate the cell viability and growth, as reported earlier.
# EKVX = assay: as above
# Experimental: as §1, §2
# HOP-62 = assay: as above
# Experimental: as §1, §2
# HOP-92 = assay: as above
# Experimental: as §1, §2
# NCI-H226 = assay: as above
# Experimental: as §1, §2
# NCI-H23 = assay: as above
# Experimental: as §1, §2
# NCI-H322M = assay: as above
# Experimental: as §1, §2
# NCI-H460 = assay: as above
# Experimental: as §1, §2
# NCI-H522 = assay: as above
# Experimental: as §1, §2
# IGROV1 = assay: NCI one-dose SRB assay (Ovarian Cancer)
# Experimental: as §1, §2
# NCI/ADR-RES = assay: NCI one-dose SRB assay (Ovarian Cancer)
# Experimental: as §1, §2
# OVCAR-3 = assay: NCI one-dose SRB assay (Ovarian Cancer)
# Experimental: as §1, §2
# OVCAR-4 = assay: NCI one-dose SRB assay (Ovarian Cancer)
# Experimental: as §1, §2
# OVCAR-5 = assay: NCI one-dose SRB assay (Ovarian Cancer)
# Experimental: as §1, §2
# OVCAR-8 = assay: NCI one-dose SRB assay (Ovarian Cancer)
# Experimental: as §1, §2
# SK-OV-3 = assay: NCI one-dose SRB assay (Ovarian Cancer)
# Experimental: as §1, §2
# 786-0 = assay: NCI one-dose SRB assay (Renal Cancer)
# Experimental: as §1, §2
# A498 = assay: NCI one-dose SRB assay (Renal Cancer)
# Experimental: as §1, §2
# RXF 393 = assay: NCI one-dose SRB assay (Renal Cancer)
# Experimental: as §1, §2
# SN12C = assay: NCI one-dose SRB assay (Renal Cancer)
# Experimental: as §1, §2
# TK-10 = assay: NCI one-dose SRB assay (Renal Cancer)
# Experimental: as §1, §2
# UO-31 = assay: NCI one-dose SRB assay (Renal Cancer)
# Experimental: as §1, §2
# BT-549 = assay: NCI one-dose SRB assay (Breast Cancer)
# Experimental: as §1, §2
# HS 578T = assay: NCI one-dose SRB assay (Breast Cancer)
# Experimental: as §1, §2
# MCF7 = assay: NCI one-dose SRB assay (Breast Cancer)
# Experimental: as §1, §2
# MDA-MB-231 = assay: NCI one-dose SRB assay (Breast Cancer)
# Experimental: as §1, §2
# MDA-MB-468 = assay: NCI one-dose SRB assay (Breast Cancer)
# Experimental: as §1, §2
# T-47D = assay: NCI one-dose SRB assay (Breast Cancer)
# Experimental: as §1, §2
# [1] = Homo sapiens, 10 μM, read-out: Percentage growth inhibition (GI%)
compound,measurement,setting,value
"COc1ccc(-c2ccc(NC(=O)Nc3ccc(Cl)c(C(F)(F)F)c3)c(C)n2)cc1 [Compound 8e, 1-(4-Chloro-3-(trifluoromethyl)phenyl)-3-(6-(4-methoxyphenyl)-2-methylpyridin-3-yl)urea]",Growth Percent,A549/ATCC; 1.00E-5 Molar,38.71%
same,inhibition at 10 µM,A549/ATCC; [1],62%
same,Growth Percent,EKVX; 1.00E-5 Molar,49.19%
same,inhibition at 10 µM,EKVX; [1],51%
same,Growth Percent,"HOP-62; HOP-62, 1.00E-5 Molar",62.10%
same,inhibition at 10 µM,"HOP-62; Homo sapiens, HOP-62, 10 μM, read-out: Percentage growth inhibition (GI%)",38%
same,Growth Percent,"HOP-92; HOP-92, 1.00E-5 Molar",27.03%
same,inhibition at 10 µM,"HOP-92; Homo sapiens, HOP-92, 10 μM, read-out: Percentage growth inhibition (GI%)",73%
same,inhibition at 10 µM,"NCI-H226; Homo sapiens, NCI-H226, 10 μM, read-out: Percentage growth inhibition (GI%)",35%
same,Growth Percent,"NCI-H226; NCI-H226, 1.00E-5 Molar",65.24%
same,inhibition at 10 µM,"NCI-H23; Homo sapiens, NCI-H23, 10 μM, read-out: Percentage growth inhibition (GI%)",70%
same,Growth Percent,"NCI-H23; NCI-H23, 1.00E-5 Molar",30.94%
same,Growth Percent,NCI-H322M; 1.00E-5 Molar,71.44%
same,inhibition at 10 µM,NCI-H322M; [1],29%
same,inhibition at 10 µM,"NCI-H460; Homo sapiens, NCI-H460, 10 μM, read-out: Percentage growth inhibition (GI%)",70%
same,Growth Percent,"NCI-H460; NCI-H460, 1.00E-5 Molar",30.90%
same,inhibition at 10 µM,"NCI-H522; Homo sapiens, NCI-H522, 10 μM, read-out: Percentage growth inhibition (GI%)",76%
same,Growth Percent,"NCI-H522; NCI-H522, 1.00E-5 Molar",24.81%
same,inhibition at 10 µM,"IGROV1; Homo sapiens, IGROV-1, IGROV1, 10 μM, read-out: Percentage growth inhibition (GI%)",48%
same,Growth Percent,"IGROV1; IGROV1, 1.00E-5 Molar",52.86%
same,Growth Percent,NCI/ADR-RES; 1.00E-5 Molar,49.78%
same,inhibition at 10 µM,NCI/ADR-RES; [1],51%
same,inhibition at 10 µM,"OVCAR-3; Homo sapiens, OVCAR-3, 10 μM, read-out: Percentage growth inhibition (GI%)",73%
same,Growth Percent,"OVCAR-3; OVCAR-3, 1.00E-5 Molar",27.65%
same,inhibition at 10 µM,"OVCAR-4; Homo sapiens, OVCAR-4, 10 μM, read-out: Percentage growth inhibition (GI%)",55%
same,Growth Percent,"OVCAR-4; OVCAR-4, 1.00E-5 Molar",45.11%
same,inhibition at 10 µM,"OVCAR-5; Homo sapiens, OVCAR-5, 10 μM, read-out: Percentage growth inhibition (GI%)",11%
same,Growth Percent,"OVCAR-5; OVCAR-5, 1.00E-5 Molar",89.11%
same,inhibition at 10 µM,"OVCAR-8; Homo sapiens, OVCAR-8, 10 μM, read-out: Percentage growth inhibition (GI%)",43%
same,Growth Percent,"OVCAR-8; OVCAR-8, 1.00E-5 Molar",57.40%
same,inhibition at 10 µM,"SK-OV-3; Homo sapiens, SK-OV-3, 10 μM, read-out: Percentage growth inhibition (GI%)",32%
same,Growth Percent,"SK-OV-3; SK-OV-3, 1.00E-5 Molar",68.11%
same,Growth Percent,"786-0; 786-0, 1.00E-5 Molar",56.08%
same,inhibition at 10 µM,"786-0; Homo sapiens, 786-0, 10 μM, read-out: Percentage growth inhibition (GI%)",44%
same,Growth Percent,"A498; A498, 1.00E-5 Molar",57.74%
same,inhibition at 10 µM,"A498; Homo sapiens, A498, 10 μM, read-out: Percentage growth inhibition (GI%)",43%
same,inhibition at 10 µM,"RXF 393; Homo sapiens, RXF 393, 10 μM, read-out: Percentage growth inhibition (GI%)",19%
same,Growth Percent,"RXF 393; RXF 393, 1.00E-5 Molar",81.37%
same,Growth Percent,SN12C; 1.00E-5 Molar,57.41%
same,inhibition at 10 µM,SN12C; [1],43%
same,inhibition at 10 µM,"TK-10; Homo sapiens, TK-10, 10 μM, read-out: Percentage growth inhibition (GI%)",35%
same,Growth Percent,"TK-10; TK-10, 1.00E-5 Molar",65.92%
same,inhibition at 10 µM,"UO-31; Homo sapiens, UO-31, 10 μM, read-out: Percentage growth inhibition (GI%)",61%
same,Growth Percent,"UO-31; UO-31, 1.00E-5 Molar",39.33%
same,Growth Percent,"BT-549; BT-549, 1.00E-5 Molar",66.19%
same,inhibition at 10 µM,"BT-549; Homo sapiens, BT-549, 10 μM, read-out: Percentage growth inhibition (GI%)",34%
same,Growth Percent,HS 578T; 1.00E-5 Molar,76.98%
same,inhibition at 10 µM,HS 578T; [1],24%
same,inhibition at 10 µM,"MCF7; Homo sapiens, MCF7, 10 μM, read-out: Percentage growth inhibition (GI%)",64%
same,Growth Percent,"MCF7; MCF7, 1.00E-5 Molar",36.68%
same,inhibition at 10 µM,"MDA-MB-231; Homo sapiens, MDA-MB-231, 10 μM, read-out: Percentage growth inhibition (GI%)",15%
same,Growth Percent,"MDA-MB-231; MDA-MB-231/ATCC, 1.00E-5 Molar",85.04%
same,inhibition at 10 µM,"MDA-MB-468; Homo sapiens, MDA-MB-468, 10 μM, read-out: Percentage growth inhibition (GI%)",62%
same,Growth Percent,"MDA-MB-468; MDA-MB-468, 1.00E-5 Molar",38.52%
same,Growth Percent,T-47D; 1.00E-5 Molar,21.49%
same,inhibition at 10 µM,"T-47D; Homo sapiens, T47D, 10 μM, read-out: Percentage growth inhibition (GI%)",79%

# — article PMC6100082, “Pyridine-Ureas as Potential Anticancer Agents: Synthesis and In Vitro Biological Evaluation” (Molecules : A Journal of Synthetic Chemistry and Natural …, 2018)
